US20140358576A1, “SYSTEM AND METHOD FOR SURVEILLANCE AND EVALUATION OF SAFETY RISKS ASSOCIATED WITH MEDICAL INTERVENTIONS” (Adverse Events, Inc., priority 2013, published 2014)
Where two headings read alike, the source gives them in different places.

Experiments:
[1] = patients, post-approval; cited from earlier work
[2] = for Condition Seriousness: Example 1 component score, up to 8.68 points; for Adverse Event Seriousness / Literature / Outcome / ROR / RxScore: human
[3] = human
[4] = RxScore calculation, Example 2 (FAERS components with event reporter Importance Weighting, no FDA warning/DEA schedule); conditions: for RxScore: Example 2, maximum of 100 total points, Importance Weighting applied; for Condition Seriousness / Adverse Event Seriousness / Outcome: Example 2 component score; for Condition Seriousness: up to 12 points; for Adverse Event Seriousness: up to 27 points; for Outcome: up to 35 points, comorbidity adjusted; for ROR: Example 2 disproportionality measure component score, up to 20 points; for Report Priority: Example 2 report type component score, up to 6 points

Row | Structure (SMILES) | Condition Seriousness [2] | Adverse Event Seriousness [2] | Literature [2] | Outcome [2] | ROR [2] | RxScore [2] | other results
1 | COCc1c(C(C)C)nc(C(C)C)c(/C=C/[C@@H](O)C[C@@H](O)CC(=O)O)c1-c1ccc(F)cc1 [Baycol] |  |  |  |  |  |  | side effect that became evident after FDA approval [1]: a fatal muscle-wasting syndrome
2 | CC(C)CC(N(C)C)C1(c2ccc(Cl)cc2)CCC1 (stereo not drawn) [Meridia, Sibutramine] |  |  |  |  |  |  | side effect that became evident after FDA approval [1]: severe cardiac complications
3 | CS(=O)(=O)c1ccc(C2=C(c3ccccc3)C(=O)OC2)cc1 [Vioxx, rofecoxib] |  |  |  |  |  |  | side effect that became evident after FDA approval [1]: increased heart attack and stroke rates
4 | CCN(CC)CCNC(=O)c1cc(Cl)c(N)cc1OC [metoclopramide] | 7.15 | 4.46 | 12.5 | 15.38 | 12.97 | 78.08 | 
5 | COc1ccc2c3c1O[C@H]1C(=O)CC[C@@]4(O)[C@@H](C2)N(C)CC[C@]314 [oxycodone] |  | 14.17 | 18.8 | 14.81 | 5.51 | 100.00 | disproportionality (ROR) score [3]: 268
6 | CN1CC[C@]23c4c5ccc(O)c4O[C@H]2C(=O)CC[C@@]3(O)[C@H]1C5 [oxymorphone] |  | 6.21 | 18.8 | 10.33 | 3.98 | 77.03 | 
7 | O=P(O)(O)C(O)(Cc1cccnc1)P(=O)(O)O [risedronate sodium (Actonel), risedronate sodium] |  |  |  |  |  |  | RxScore [4]: 46.13; Condition Seriousness [4]: 2.40; Adverse Event Seriousness [4]: 8.19; Outcome [4]: 13.15; ROR [4]: 4.82; Report Priority [4]: 3.46
8 | O=P(O)(O)C(O)(Cc1cccnc1)P(=O)(O)O [risedronate sodium (Atelvia), risedronate sodium] |  |  |  |  |  |  | RxScore [4]: 39.63; Condition Seriousness [4]: 2.40; Adverse Event Seriousness [4]: 4.60; Outcome [4]: 12.68; ROR [4]: 5.34; Report Priority [4]: 1.63
9 | CN(CCOc1ccc(CC2SC(=O)NC2=O)cc1)c1ccccn1 (stereo not drawn) [rosiglitazone] | 3.77 |  | 12.5 | 12.18 | 5.53 | 79.48 | 
10 | C=CC[C@@H]1/C=C(\C)C[C@H](C)C[C@H](OC)[C@H]2O[C@@](O)(C(=O)C(=O)N3CCCC[C@H]3C(=O)O[C@H](/C(C)=C/[C@@H]3CC[C@@H](O)[C@H](OC)C3)[C@H](C)[C@@H](O)CC1=O)[C@H](C)C[C@@H]2OC [tacrolimus] | 3.13 | 14.77 | 9.3 | 15.75 | 4.09 | 78.26 | 
11 | CCCCC[C@H](O)CC[C@@H]1[C@H]2Cc3cccc(OCC(=O)O)c3C[C@H]2C[C@H]1O [treprostinil] | 4.00 |  | 0.0 |  |  |  | 
